Reference: patent publication US12559529B2, “NPY2 receptor agonists” (Boehringer Ingelheim International GmbH, priority 2019, dated 2026)
*1 amine or outer side, *2 acyl side, *3 side chain or, on linkers, in order; H or OH if unused. Where a SMILES comes first, the peptide text is derived from it. Side-chain parts run from the residue outwards. The star is where a group is joined. C18 diacid = O=C(O)CCCCCCCCCCCCCCCCC(=O)*; γGlu = O=C(O)[C@H](CCC(=O)[*:2])N[*:1]; Isovaleryl = CC(C)CC(=O)*; AEEA = NCCOCCOCC(=O)O

Target: T1, Human Neuropeptide Y2 Receptor (Homo sapiens, UniProt P49146)
T1 construct: purchased CHEMICON HTS066M
T1 sequence (P49146 1-381): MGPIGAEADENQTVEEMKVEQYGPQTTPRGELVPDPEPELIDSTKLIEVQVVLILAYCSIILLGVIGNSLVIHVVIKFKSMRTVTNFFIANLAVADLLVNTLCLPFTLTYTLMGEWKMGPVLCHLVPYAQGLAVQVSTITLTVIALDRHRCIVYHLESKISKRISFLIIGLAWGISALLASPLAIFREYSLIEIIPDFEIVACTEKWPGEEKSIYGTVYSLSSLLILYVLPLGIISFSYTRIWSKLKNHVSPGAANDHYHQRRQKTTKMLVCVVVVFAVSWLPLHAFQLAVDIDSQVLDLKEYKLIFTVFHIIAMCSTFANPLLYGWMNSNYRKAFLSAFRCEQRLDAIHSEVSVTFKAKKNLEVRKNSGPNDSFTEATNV
Assay: Radioligand binding competition assay (RLB)
Settings: Table 3; human 125I-PYY (1-36) 0.02 nM, Y2 receptor membranes; read-out: Ki
Outline: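 Competition binding on human Y2 receptor membranes, 0.5 μg protein/well, in 50 mM HEPES, 5 mM MgCl2, 1 mM CaCl2, pH 7.4, 0.2% ovalbumin; peptides diluted from 1 mM DMSO stocks.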

Point of comparison: CC(C)CC(=O)N[C@@H](C)C(=O)N1CCC[C@H]1C(=O)N[C@@H](CCC(=O)O)C(=O)N[C@@H](CCCCNC(=O)COCCOCCNC(=O)COCCOCCNC(=O)CC[C@H](NC(=O)CCCCCCCCCCCCCCCCC(=O)O)C(=O)O)C(=O)N1CCC[C@H]1C(=O)N[C@@H](CCC(=O)O)C(=O)N[C@@H](CCC(=O)O)C(=O)N[C@@H](CC(=O)O)C(=O)N[C@H](C(=O)N[C@@H](CO)C(=O)N1CCC[C@H]1C(=O)N[C@@H](CCC(=O)O)C(=O)N[C@@H](CCC(=O)O)C(=O)N[C@@H](CC(C)C)C(=O)N[C@@H](CCC(N)=O)C(=O)N[C@@H](CCCNC(=N)N)C(=O)N[C@@H](Cc1ccc(O)cc1)C(=O)N[C@@H](Cc1ccc(O)cc1)C(=O)N[C@H](C(=O)N[C@@H](CO)C(=O)N[C@@H](CC(C)C)C(=O)N[C@@H](CCCNC(=N)N)C(=O)N[C@@H](Cc1c[nH]cn1)C(=O)N[C@@H](Cc1ccc(O)cc1)C(=O)N[C@@H](Cc1ccc(O)cc1)C(=O)N[C@@H](CC(N)=O)C(=O)N[C@@H](Cc1c[nH]c2ccccc12)C(=O)N[C@@H](CC(C)C)C(=O)N[C@H](C(=O)N[C@@H](CCCNC(=N)N)C(=O)N[C@@H](CCC(N)=O)C(=O)N[C@@H](CCCNC(=N)N)C(=O)N[C@@H](Cc1ccc(O)cc1)C(N)=O)[C@@H](C)O)C(C)C)[C@@H](C)O [Compound 92, N{alpha-4}-(3-methylbutanoyl)-N{epsilon-7}-[2-(2-{2-[2-(2-{2-[(4S)-4-carboxy-4-(17-carboxyheptadecanamido)butanamido]ethoxy}ethoxy)acetamido]ethoxy}ethoxy)acetamido]-[4A,7K,9E,12T,18Q,22V,28Y,30W,31L]hPYY (4-36)], Ki 1.57 nM. Against it:
- CC(C)CC(=O)N[C@@H](C)C(=O)N1CCC[C@H]1C(=O)N[C@@H](CCC(=O)O)C(=O)N[C@@H](CCCCNC(=O)COCCOCCNC(=O)COCCOCCNC(=O)CC[C@H](NC(=O)CCCCCCCCCCCCCCCCC(=O)O)C(=O)O)C(=O)N1CCC[C@H]1C(=O)N[C@@H](CCC(=O)O)C(=O)N[C@@H](C)C(=O)N[C@@H](CC(=O)O)C(=O)N[C@@H](C)C(=O)N[C@@H](CO)C(=O)N1CCC[C@H]1C(=O)N[C@@H](CCC(=O)O)C(=O)N[C@@H](CCC(=O)O)C(=O)N[C@@H](CC(C)C)C(=O)N[C@@H](CCC(N)=O)C(=O)N[C@@H](CCCNC(=N)N)C(=O)N[C@@H](Cc1ccc(O)cc1)C(=O)N[C@@H](CCC(=O)O)C(=O)N[C@H](C(=O)N[C@@H](CO)C(=O)N[C@@H](CC(C)C)C(=O)N[C@@H](CCCNC(=N)N)C(=O)N[C@@H](Cc1c[nH]cn1)C(=O)N[C@@H](Cc1ccc(O)cc1)C(=O)N[C@@H](Cc1ccc(O)cc1)C(=O)N[C@@H](CC(N)=O)C(=O)N[C@@H](Cc1c[nH]c2ccccc12)C(=O)N[C@@H](CC(C)C)C(=O)N[C@H](C(=O)N[C@@H](CCCNC(=N)N)C(=O)N[C@@H](CCC(N)=O)C(=O)N[C@@H](CCCNC(=N)N)C(=O)N[C@@H](Cc1ccc(O)cc1)C(N)=O)[C@@H](C)O)C(C)C [Compound 86, N{alpha-4}-(3-methylbutanoyl)-N{epsilon-7}-[2-(2-{2-[2-(2-{2-[(4S)-4-carboxy-4-(17-carboxyheptadecanamido)butanamido]ethoxy}ethoxy)acetamido]ethoxy}ethoxy)acetamido]-[4A,7K,9E,10A,18Q,21E,22V,28Y,30W,31L]hPYY (4-36)] (Isovaleryl-APEK([AEEA-AEEA-γGlu-C18 diacid])PEADASPEELQRYEVSLRHYYNWLTRQRY-NH2) — within 1.5-fold, 1.19 nM
- CC(C)CC(=O)N[C@@H](C)C(=O)N1CCC[C@H]1C(=O)N[C@@H](CCC(=O)O)C(=O)N[C@@H](CCCCNC(=O)COCCOCCNC(=O)COCCOCCNC(=O)CC[C@H](NC(=O)CCCCCCCCCCCCCCCCC(=O)O)C(=O)O)C(=O)N1CCC[C@H]1C(=O)N[C@@H](CCC(=O)O)C(=O)N[C@@H](CCC(=O)O)C(=O)N[C@@H](CC(=O)O)C(=O)N[C@@H](CO)C(=O)N[C@@H](CO)C(=O)N1CCC[C@H]1C(=O)N[C@@H](C)C(=O)N[C@@H](CCC(=O)O)C(=O)N[C@@H](CC(C)C)C(=O)N[C@@H](CCC(N)=O)C(=O)N[C@@H](CCCNC(=N)N)C(=O)N[C@@H](Cc1ccc(O)cc1)C(=O)N[C@@H](Cc1ccc(O)cc1)C(=O)N[C@H](C(=O)N[C@@H](CO)C(=O)N[C@@H](CC(C)C)C(=O)N[C@@H](CCCNC(=N)N)C(=O)N[C@@H](Cc1c[nH]cn1)C(=O)N[C@@H](Cc1ccc(O)cc1)C(=O)N[C@@H](Cc1ccc(O)cc1)C(=O)N[C@@H](CC(N)=O)C(=O)N[C@@H](Cc1c[nH]c2ccccc12)C(=O)N[C@@H](CC(C)C)C(=O)N[C@H](C(=O)N[C@@H](CCCNC(=N)N)C(=O)N[C@@H](CCC(N)=O)C(=O)N[C@@H](CCCNC(=N)N)C(=O)N[C@@H](Cc1ccc(O)cc1)C(N)=O)[C@@H](C)O)C(C)C [Compound 87, N{alpha-4}-(3-methylbutanoyl)-N{epsilon-7}-[2-(2-{2-[2-(2-{2-[(4S)-4-carboxy-4-(17-carboxyheptadecanamido)butanamido]ethoxy}ethoxy)acetamido]ethoxy}ethoxy)acetamido]-[4A,7K,9E,12S,15A,18Q,22V,28Y,30W,31L]hPYY (4-36)] (Isovaleryl-APEK([AEEA-AEEA-γGlu-C18 diacid])PEEDSSPAELQRYYVSLRHYYNWLTRQRY-NH2) — within 1.5-fold, 1.97 nM
- CC(C)CC(=O)N[C@@H](C)C(=O)N1CCC[C@H]1C(=O)N[C@@H](CCC(=O)O)C(=O)N[C@@H](CCCCNC(=O)COCCOCCNC(=O)COCCOCCNC(=O)CC[C@H](NC(=O)CCCCCCCCCCCCCCCCC(=O)O)C(=O)O)C(=O)N1CCC[C@H]1C(=O)N[C@@H](CCC(=O)O)C(=O)N[C@@H](CCC(=O)O)C(=O)N[C@@H](CCC(=O)O)C(=O)N[C@@H](C)C(=O)N[C@@H](CCC(=O)O)C(=O)N1CCC[C@H]1C(=O)N[C@@H](CCC(=O)O)C(=O)N[C@@H](CCC(=O)O)C(=O)N[C@@H](CC(C)C)C(=O)N[C@@H](CCC(N)=O)C(=O)N[C@@H](CCCNC(=N)N)C(=O)N[C@@H](Cc1ccc(O)cc1)C(=O)N[C@@H](Cc1ccc(O)cc1)C(=O)N[C@H](C(=O)N[C@@H](CO)C(=O)N[C@@H](CC(C)C)C(=O)N[C@@H](CCCNC(=N)N)C(=O)N[C@@H](Cc1c[nH]cn1)C(=O)N[C@@H](Cc1ccc(O)cc1)C(=O)N[C@@H](Cc1ccc(O)cc1)C(=O)N[C@@H](CC(N)=O)C(=O)N[C@@H](Cc1c[nH]c2ccccc12)C(=O)N[C@@H](CC(C)C)C(=O)N[C@H](C(=O)N[C@@H](CCCNC(=N)N)C(=O)N[C@@H](CCC(N)=O)C(=O)N[C@@H](CCCNC(=N)N)C(=O)N[C@@H](Cc1ccc(O)cc1)C(N)=O)[C@@H](C)O)C(C)C [Compound 89, N{alpha-4}-(3-methylbutanoyl)-N{epsilon-7}-[2-(2-{2-[2-(2-{2-[(4S)-4-carboxy-4-(17-carboxyheptadecanamido)butanamido]ethoxy}ethoxy)acetamido]ethoxy}ethoxy)acetamido]-[4A,7K,9E,11E,13E,18Q,22V,28Y,30W,31L]hPYY (4-36)] — 6.1-fold higher, 9.61 nM
- CC(C)CC(=O)N[C@@H](C)C(=O)N1CCC[C@H]1C(=O)N[C@@H](CCC(=O)O)C(=O)N[C@@H](CCCCNC(=O)COCCOCCNC(=O)COCCOCCNC(=O)CC[C@H](NC(=O)CCCCCCCCCCCCCCCCC(=O)O)C(=O)O)C(=O)N1CCC[C@H]1C(=O)N[C@@H](CCC(=O)O)C(=O)N[C@@H](CCC(=O)O)C(=O)N[C@@H](CC(=O)O)C(=O)N[C@@H](C)C(=O)N[C@@H](CO)C(=O)N1CCC[C@H]1C(=O)N[C@@H](CCC(=O)O)C(=O)N[C@@H](CCC(=O)O)C(=O)N[C@H](C(=O)N[C@@H](CCC(N)=O)C(=O)N[C@@H](CCCNC(=N)N)C(=O)N[C@@H](Cc1ccc(O)cc1)C(=O)N[C@@H](Cc1ccc(O)cc1)C(=O)N[C@H](C(=O)N[C@@H](CCC(=O)O)C(=O)N[C@@H](CC(C)C)C(=O)N[C@@H](CCCNC(=N)N)C(=O)N[C@@H](Cc1c[nH]cn1)C(=O)N[C@@H](Cc1ccc(O)cc1)C(=O)N[C@@H](Cc1ccc(O)cc1)C(=O)N[C@@H](CC(N)=O)C(=O)N[C@@H](Cc1c[nH]c2ccccc12)C(=O)N[C@@H](CC(C)C)C(=O)N[C@H](C(=O)N[C@@H](CCCNC(=N)N)C(=O)N[C@@H](CCC(N)=O)C(=O)N[C@@H](CCCNC(=N)N)C(=O)N[C@@H](Cc1ccc(O)cc1)C(N)=O)[C@@H](C)O)C(C)C)[C@@H](C)O [Compound 94, N{alpha-4}-(3-methylbutanoyl)-N{epsilon-7}-[2-(2-{2-[2-(2-{2-[(4S)-4-carboxy-4-(17-carboxyheptadecanamido)butanamido]ethoxy}ethoxy)acetamido]ethoxy}ethoxy)acetamido]-[4A,7K,9E,17T,18Q,22V,23E,28Y,30W,31L]hPYY (4-36)] — within 1.5-fold, 2.07 nM
